Assay results taken from PubChem BioAssay AID179 (DTP/NCI, 2004).
Activity calls are given as the source filed them.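 How the source made its calls: active means compounds giving half or more protection of infected cells from virus-caused growth loss, again on retest; inactive means the rest.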

Tested on: CEM cells HIV-1 protection, formazan growth assay
Assay: NCI AIDS Antiviral Assay
Settings: for IC50: measured here: growth of uninfected CEM cells
Outline: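 Human CEM cells, uninfected and HIV-1-infected, exposed to five drug concentrations; growth measured by soluble formazan assay and scored as percent protection from infection, with protecting compounds retested.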

SMILES | EC50 | IC50 | outcome
COC(=N)C(C)C | > 1820 µM | > 1820 µM | 
C[n+]1c2ccccc2n2c3ccccc3c(NCc3ccco3)c(C#N)c21 | > 20 µM | 1.48 µM | 
Cn1cnc([N+](=O)[O-])c1Sc1nc2ccccc2[nH]1 | > 19.1 µM | 6.92 µM | 
CCOC(=O)CC(Sc1ccccc1)Sc1ccccc1 |  |  | inactive
C=C(C)C(OC(C)=O)C(OC(C)=O)c1c(OC)ccc2ccc(=O)oc12 (stereo not drawn) | > 50.1 µM | > 50.1 µM | 
CCCCCCCCN(CCCCCCCC)/N=C/c1c2c(O)c3c(O)c(C)c4c(c3c1O)C(=O)C(C)(O/C=C/C(OC)C(C)C(OC(C)=O)C(C)C(O)C(C)C(O)C(C)/C=C/C=C(C)C(=O)N2)O4 (stereo not drawn) |  |  | inactive
COc1cc2c3c(c1)[nH]c(=S)n3C(=O)C(C)S2 (stereo not drawn) | > 200 µM | 141 µM | 
CCN(CC)C(=S)SS(=O)(=O)c1ccc(NC(C)=O)cc1 | > 200 µM | 11 µM | 
CCOC(=O)C1=C(OC(OCC)C(C)[Se]c2ccccc2)CCC1 (stereo not drawn) | > 46.8 µM | 42.7 µM | 
COc1ccc(N2C(=O)C3c4[nH]c5c(C)cccc5c4C4CCC(c5ccccc5)CC4C3C2=O)cc1 (stereo not drawn) | > 200 µM | 60.3 µM | 
Cc1ccc(Nc2nc(NNC(=O)Cc3ccccc3)nc(NNC(=O)c3ccncc3)n2)cc1 | > 50.1 µM | > 50.1 µM | 
CN(CC(=O)O)S(=O)(=O)c1ccc2ccccc2c1 |  |  | inactive
CCOC(OC1=C(C#N)CCCC1)C(CC)[Se]c1ccccc1 (stereo not drawn) | > 132 µM | 67.6 µM | 
Cn1c(NN)nc2ccccc2c1=O |  |  | inactive
COC(=O)C1=C(C(=O)OC)C(Cc2ccccc2)(OO)OC1=O (stereo not drawn) | > 200 µM | 0.955 µM | 
Clc1cc2nc(C3CCCCO3)[nH]c2cc1Cl (stereo not drawn) | > 200 µM | 10.2 µM | 
COc1c(Cl)cc(C(=CCN[C@@H]2CC[C@@]3(C)[C@@H](CC[C@@H]4[C@@H]3CC[C@]3(C)[C@@H]([C@H](C)CCCC(C)C)CC[C@@H]43)C2)c2cc(Cl)c(OC)c(C(=O)O)c2)cc1C(=O)O | > 100 µM | 61.7 µM | 
CC(=O)C1=C(C)NC2C=CC=CN12 (stereo not drawn) | > 1410 µM | 676 µM | 

SMILES | EC50 | IC50 | outcome
O=[N+]([O-])c1cccc(C2=NN(c3ccccc3)C3c4ccccc4OCC23)c1 (stereo not drawn) | > 7.41 µM | > 7.41 µM | 
O=[N+]([O-])c1cc(-c2ccccc2)c([O][Sn]([c]2ccccc2)([c]2ccccc2)[c]2ccccc2)c([N+](=O)[O-])c1 | > 200 µM | 3.8 µM | 
Cc1c(C(=O)O)n(C)c(=O)n(C)c1=O |  |  | inactive
Cc1ccc(C2=NN(C)COC2C(F)(F)F)cc1 (stereo not drawn) | > 28.2 µM | > 28.2 µM | 
COC(=O)C(=O)C(C(=O)C(=O)Nc1cc([N+](=O)[O-])ccc1[N+](=O)[O-])c1nc2ccc(C(=O)c3ccccc3)cc2[nH]c1=O (stereo not drawn) | > 158 µM | 83.2 µM | 
COc1cc2c(cc1OC)C(C1C(=O)CC(C)(C)CC1=O)NCC2 (stereo not drawn) |  |  | inactive
COc1ccccc1C1c2cc3c(cc2OC(N2CCCC2)C1C)OCO3 (stereo not drawn) | > 200 µM | 16.2 µM | 
c1ccc(P(=C2c3ccccc3-c3ccccc32)(c2ccccc2)c2ccccc2)cc1 |  |  | inactive
COc1cc(OC)c(C2c3cc4c(cc3OC(N3CCOCC3)C2C)OCO4)c(OC)c1 (stereo not drawn) | > 200 µM | 11.2 µM | 
O=C1NC(O)c2cc3ccccc3cc2O1 (stereo not drawn) | > 200 µM | 112 µM | 
CCOP(=O)(OCC)/C(C#N)=C/c1cccc(Cl)c1 | > 224 µM | 174 µM | 
COc1ccc(C[C@@H]2NC[C@@H](O)[C@@H]2OC(C)=O)cc1 | > 4.17 µM | 0.017 µM | 
CN(C)c1nn2c(-c3ccccc3)nnc2o1 | > 200 µM | > 200 µM | 
COc1cccc(/C=C\c2ccc(O)cc2)c1 | > 200 µM | 4.27 µM | 
C=CC(=O)N1C/C(=C\c2ccc(F)cc2)C(=O)/C(=C/c2ccc(F)cc2)C1 | > 0.2 µM | 0.162 µM | 
CN1CCN(CCCN2c3ccccc3Sc3ccc(Cl)cc32)CC1 | > 200 µM | 3.72 µM | 
CCOC(=O)C1SC(=Nc2ccc(Cl)c(Cl)c2)N=C1C (stereo not drawn) | > 11.5 µM | > 11.5 µM | 
